Experimental data from patent US9890185B2, “Urea derivatives useful as kinase inhibitors” (Respivert Limited, priority 2013, dated 2018).

Tests used:
PBMCs [1] = experiment: IL-2 release in CD3/CD28 stimulated PBMC cells (assay c); type: cell-based; settings: Homo sapiens, read-out: IC50 Values for Inhibition of Cytokine Release, PBMCs IL-2
Experimental: (§1) PBMCs from healthy subjects are separated from whole blood using a density gradient (Lymphoprep, Axis-Shield Healthcare). Cells are added to a 96 well plate pre-coated with a mixture of CD3/CD28 monoclonal antibodies (0.3 μg/mL eBioscience and 3 μg/mL BD Pharmingen respectively). Compound at the desired concentration is then added to the wells and the plate left for 3 days under normal tissue culture conditions. Supernatants are harvested and IL-2 and IFN gamma release determined by Sandwich ELISA (Duo-set, R&D System). The IC50 is determined from the dose response curve.

d-U937 cells = experiment: Accumulation of β catenin in d-U937 cells (assay m); type: cell-based, human; settings: percentage relative to Reference Compound at 1 μg/mL
Experimental: U937 cells, a human monocytic cell line, are differentiated into macrophage-type cells by incubation with PMA; (100 ng/mL) for between 48 to 72 hr. The cells are then incubated with either final concentrations of test compound or vehicle for 18 hr. The induction of β-catenin by the test compounds is stopped by replacing the media with 4% formaldehyde solution. Endogenous peroxide activity is neutralised by incubating with quenching buffer (100 μL, 0.1% sodium azide, 1% H2O2 in PBS with 0.05% Tween-20) for 20 min. The cells are washed with washing buffer (200 μL; PBS containing 0.05% Tween-20) and incubated with blocking solution (200 μL; 5% milk in PBS) for 1 hr, re-washed with washing buffer (200 μL) and then incubated overnight with anti-β-catenin antibody solution (50 μL) in 1% BSA/PBS (BD, Oxford, UK).
After washing with washing buffer (3×200 μL; PBS containing 0.05% Tween-20), cells are incubated with an HRP-conjugated secondary antibody solution (100 μL) in 1% BSA/PBS (Dako, Cambridge, UK) and the resultant signal is determined colourimetrically (OD: 450 nm with a reference wavelength of 655 nm) using TMB substrate (50 μL; R&D Systems, Abingdon, UK). This reaction is stopped by addition of 1N H2SO4 solution (50 μL). Cells are then washed with washing buffer and 2% crystal violet solution (50 μL) is applied for 30 min. After washing with washing buffer (3×200 μL), 1% SDS (100 μL) is added to each well and the plates are shaken lightly for 1 hr prior to measuring the absorbance at 595 nm (Varioskan® Flash, Thermo-Fisher Scientific).
The measured OD450-655 readings are corrected for cell number by dividing the OD450-655 by the OD595 readings.

PBMCs [2] = experiment: LPS-induced IL-8 release in PBMC cells (assay b); type: cell-based, human; settings: Homo sapiens, PBMC; LPS-stimulated PBMCs; read-out: IC50 Values for Inhibition of Cytokine Release, PBMCs IL-8
In short: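 Human PBMCs from healthy donors, isolated by density gradient, were pretreated with compound for 2 h and then stimulated with 1 ng/mL LPS (E. coli 0111:B4) for 24 h at 37° C, 5% CO2. Supernatant IL-8 and TNFα were measured by sandwich ELISA, and IC50 was taken from the dose-response curve.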

c-Src = c-Src (Homo sapiens (Human), UniProt P12931); experiment: c-Src enzyme inhibition (FRET, Z-LYTE); type: biochemical
Experimental: (§2) The enzyme inhibitory activities of compounds disclosed herein are determined by FRET using synthetic peptides labelled with both donor and acceptor fluorophores (Z-LYTE, Invitrogen Ltd., Paisley, UK).
(§3) The inhibitory activities of compounds of the invention against c-Src and Syk enzymes (Invitrogen), are evaluated in a similar fashion to that described hereinabove. The relevant enzyme (3000 ng/mL or 2000 ng/mL respectively, 2.5 μL) is incubated with the test compound (either 4 μg/mL, 0.4 μg/mL, 0.04 μg/mL, or 0.004 μg/mL, 2.5 μL each) for 2 hr at RT. The FRET peptides (8 μM, 2.5 μL), and appropriate ATP solutions (2.5 μL, 800 μM for c-Src, and 60 μM ATP for Syk) are then added to the enzymes/compound mixtures and incubated for 1 hr. Development reagent (protease, 5 μL) is added for 1 hr prior to detection in a fluorescence microplate reader (Varioskan® Flash, ThermoFisher Scientific).
(§4) In all cases, the site-specific protease cleaves non-phosphorylated peptide only and eliminates the FRET signal. Phosphorylation levels of each reaction are calculated using the ratio of coumarin emission (donor) over fluorescein emission (acceptor), for which high ratios indicate high phosphorylation and low ratios indicate low phosphorylation levels. The percentage inhibition of each reaction is calculated relative to non-inhibited control and the 50% inhibitory concentration (IC50 value) is then calculated from the concentration-response curve.

[3] = target: p38 MAPKα isoform (MAPK14) (Homo sapiens (Human), UniProt Q16539); experiment: p38 MAPKα enzyme inhibition (FRET, Z-LYTE, Method 2); type: biochemical
Experimental: as §2
The following two assay variants can be used for determination of p38 MAPKα inhibition.
The inhibitory activities of test compounds against the p38 MAPKα isoform (MAPK14: Invitrogen), are evaluated indirectly by determining the level of activation/phosphorylation of the down-stream molecule, MAPKAP-K2. The p38 MAPKα protein (80 ng/mL, 2.5 μL) is mixed with the test compound (2.5 μL of either 4 μg/mL, 0.4 μg/mL, 0.04 μg/mL or 0.004 μg/mL) for 2 hr at RT. […] The mixture is incubated for 1 hr at RT. Development reagent (protease, 5 μL) is added for 1 hr prior to detection in a fluorescence microplate reader (Varioskan® Flash, ThermoFisher Scientific).
This method follows the same steps as Method 1 above, but utilises a higher concentration of the p38 MAPKα protein (2.5 μL of 200 ng/mL protein instead of 2.5 μL of 80 ng/mL protein) for mixing with the test compound.
as §4

Syk = Syk (Homo sapiens (Human), UniProt P43405); experiment: Syk enzyme inhibition (FRET, Z-LYTE); type: biochemical
Experimental: as §2, §3, §4

GSK 3α = GSK 3α (Homo sapiens (Human), UniProt P49840); experiment: GSK 3α enzyme inhibition (FRET, Z-LYTE, Method 2); type: biochemical; settings: read-out: IC50 Values for Enzyme Inhibition, GSK3α
In short: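 Phosphorylation of a dual-labelled synthetic peptide by human GSK3α is read as a coumarin/fluorescein ratio after protease development. Compound stocks run 4 to 0.004 μg/mL, and ATP stock is 40 μM.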

PBMCs [4] = experiment: IFN gamma release in CD3/CD28 stimulated PBMC cells (assay c); type: cell-based; settings: Homo sapiens, read-out: IC50 Values for Inhibition of Cytokine Release, PBMCs IFNγ
Experimental: as §1

PBMCs [5] = experiment: Cell mitosis assay in PBMCs (assay g); type: cell-based; settings: Homo sapiens, PBMC, test compound 5 μg/mL
Experimental: Peripheral blood mononucleocytes (PBMCs) from healthy subjects are separated from whole blood (Quintiles, London, UK) using a density gradient (Histopaque®-1077, Sigma-Aldrich, Poole, UK). The PBMCs (3 million cells per sample) are subsequently treated with 2% PHA (phytohaemagglutinin, Sigma-Aldrich, Poole, UK) for 48 hr, followed by a 20 hr exposure to varying concentrations of test compounds. At 2 hr before collection, PBMCs are treated with demecolcine (0.1 μg/mL; Invitrogen, Paisley, UK) to arrest cells in metaphase. To observe mitotic cells, PBMCs are permeabilised and fixed by adding Intraprep (50 μL; Beckman Coulter, France), and stained with anti-phospho-histone 3 (0.26 ng/L; #9701; Cell Signalling, Danvers, Mass.) and propidium iodide (1 mg/mL; Sigma-Aldrich, Poole, UK) as previously described (Muehlbauer P. A. and Schuler M. J., Mutation Research, 2003, 537:117-130). Fluorescence is observed using an ATTUNE flow cytometer (Invitrogen, Paisley, UK), gating for lymphocytes. The percentage inhibition of mitosis is calculated for each treatment relative to vehicle (0.5% DMSO) treatment.

Sequence of GSK 3α (P49840 whole entry): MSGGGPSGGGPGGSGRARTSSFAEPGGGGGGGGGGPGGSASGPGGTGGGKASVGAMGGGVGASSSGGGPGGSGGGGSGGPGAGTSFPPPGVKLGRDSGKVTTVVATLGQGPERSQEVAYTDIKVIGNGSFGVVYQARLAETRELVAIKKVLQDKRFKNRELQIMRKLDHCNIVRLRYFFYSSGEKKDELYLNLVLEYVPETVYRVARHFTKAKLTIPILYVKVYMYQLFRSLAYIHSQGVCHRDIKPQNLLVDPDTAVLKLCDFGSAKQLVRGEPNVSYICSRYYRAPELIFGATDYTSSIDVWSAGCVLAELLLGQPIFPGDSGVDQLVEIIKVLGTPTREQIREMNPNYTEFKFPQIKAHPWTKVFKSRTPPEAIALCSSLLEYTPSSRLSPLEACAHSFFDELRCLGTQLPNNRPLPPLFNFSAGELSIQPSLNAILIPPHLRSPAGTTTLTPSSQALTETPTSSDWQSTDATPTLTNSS
Sequence of p38 MAPKα isoform (MAPK14) (Q16539 whole entry, canonical isoform): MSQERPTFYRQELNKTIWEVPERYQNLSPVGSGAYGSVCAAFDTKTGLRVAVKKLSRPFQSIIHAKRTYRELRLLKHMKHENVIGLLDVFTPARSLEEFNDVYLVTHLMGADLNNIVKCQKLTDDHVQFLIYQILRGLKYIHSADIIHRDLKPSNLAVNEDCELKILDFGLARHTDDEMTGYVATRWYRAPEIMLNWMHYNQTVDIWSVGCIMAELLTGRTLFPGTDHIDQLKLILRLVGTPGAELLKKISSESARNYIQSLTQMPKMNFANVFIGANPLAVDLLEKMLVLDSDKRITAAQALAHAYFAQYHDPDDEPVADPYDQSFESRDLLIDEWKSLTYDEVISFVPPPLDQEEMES
Sequence of c-Src (P12931 whole entry, looked up): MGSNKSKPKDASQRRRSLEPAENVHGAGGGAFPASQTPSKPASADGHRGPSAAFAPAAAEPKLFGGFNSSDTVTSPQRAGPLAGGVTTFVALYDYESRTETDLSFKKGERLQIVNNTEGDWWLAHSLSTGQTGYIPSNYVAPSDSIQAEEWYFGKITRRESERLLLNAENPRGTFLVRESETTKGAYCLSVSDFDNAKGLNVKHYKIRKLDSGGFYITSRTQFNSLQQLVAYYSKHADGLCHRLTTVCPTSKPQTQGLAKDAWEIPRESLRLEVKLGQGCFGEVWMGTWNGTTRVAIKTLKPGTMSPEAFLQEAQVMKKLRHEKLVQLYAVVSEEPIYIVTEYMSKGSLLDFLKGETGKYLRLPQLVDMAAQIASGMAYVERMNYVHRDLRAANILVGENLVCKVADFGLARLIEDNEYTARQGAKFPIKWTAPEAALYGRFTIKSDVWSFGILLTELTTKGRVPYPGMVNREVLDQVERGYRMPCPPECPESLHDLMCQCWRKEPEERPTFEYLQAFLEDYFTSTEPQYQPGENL

Row | Structure (SMILES) | IC50 (PBMCs [1]) | % β-catenin induction (d-U937 cells; test compound 1 μg/mL) | % β-catenin induction (d-U937 cells; test compound 5 μg/mL) | % β-catenin induction (d-U937 cells; test compound 10 μg/mL) | IC50 (PBMCs [2]) | IC50 (c-Src) | IC50 [3] | IC50 (Syk) | IC50 (GSK 3α) | IC50 (PBMCs [4]) | inhibition at 5 µg/mL (PBMCs [5])
1 | COc1c(NC(=O)Nc2ccc(Oc3ccnc(Nc4ccccc4)c3)c3ccccc23)cc(C(C)(C)C)cc1OCP(C)(C)=O [15(e), 1-(5-(tert-butyl)-3-((dimethylphosphoryl)methoxy)-2-methoxyphenyl)-3-(4-((2-(phenylamino)pyridin-4-yl)oxy)naphthalen-1-yl)urea] | 25.6 nM | 2.0% | 20.5% | 32.5% | 4.7 nM | 120 nM | 360 nM | 551 nM | 2890 nM | 60.4 nM | 
2 | COc1c(NC(=O)Nc2ccc(Oc3ccnc(Nc4cnccn4)n3)c3ccccc23)cc(C(C)(C)C)cc1P(C)(C)=O [15(q), 1-(5-(tert-butyl)-3-(dimethylphosphoryl)-2-methoxyphenyl)-3-(4-((2-(pyrazin-2-ylamino)pyrimidin-4-yl)oxy)naphthalen-1-yl)urea] |  | 5.0% | 9.5% | 2.5% | 6.2 nM | 211 nM |  | > 1640 nM | 3480 nM | 1640 nM | 12.9%
3 | COc1c(CC(N)=O)cc(C(C)(C)C)cc1NC(=O)Nc1ccc(Oc2ccnc(Nc3cccc(OC(F)F)c3)c2)c2ccccc12 [38(s), 2-(5-(tert-Butyl)-3-(3-(4-((2-((3-(difluoromethoxy)phenyl)amino)pyridin-4-yl)oxy)naphthalen-1-yl)ureido)-2-methoxyphenyl)acetamide] | 190 nM |  |  |  | 5.3 nM | 363 nM |  | > 1520 nM | > 15300 nM | 26.7 nM | 
4 | COc1cc(Nc2cc(Oc3ccc(NC(=O)Nc4cc(C(C)(C)C)cc(CP(C)(C)=O)c4OC)c4ccccc34)ccn2)cc(C(=O)NCCN2CCOCC2)c1 [38(v), 3-((4-((4-(3-(5-(tert-Butyl)-3-((dimethylphosphoryl)methyl)-2-methoxyphenyl)ureido)-naphthalen-1-yl)oxy)pyridin-2-yl)amino)-5-methoxy-N-(2-morpholinoethyl)benzamide] | 84.5 nM |  |  |  | 1.7 nM |  |  |  | 1150 nM | 8.1 nM | 
5 | COCCOCCOCCOc1cc(Nc2nccc(Oc3ccc(NC(=O)Nc4cc(C(C)(C)C)cc(P(C)(C)=O)c4OC)c4ccccc34)n2)cc(OC)c1 [Example 1, 1-(5-(tert-Butyl)-3-(dimethylphosphoryl)-2-methoxyphenyl)-3-(4-((2-((3-methoxy-5-(2-(2-(2-methoxyethoxy)ethoxy)ethoxy)phenyl)amino)pyrimidin-4-yl)oxy)naphthalen-1-yl)urea] | 61.2 nM |  |  |  | 1.1 nM | 9 nM | 34 nM | 30 nM | 330 nM | 3.8 nM | 
6 | COc1cncc(Nc2cc(Oc3ccc(NC(=O)Nc4cc(C(C)(C)C)cc(P(C)(C)=O)c4OC)c4ccccc34)ccn2)c1 [Example 34, 1-(5-(tert-Butyl)-3-(dimethylphosphoryl)-2-methoxyphenyl)-3-(4-((2-((5-methoxypyridin-3-yl)amino)pyridin-4-yl)oxy)naphthalen-1-yl)urea] |  | 2.0% | 28.5% | 23.0% | 1.2 nM | 43 nM | 56 nM | 228 nM | 1580 nM |  | 81.1%
7 | COc1c(NC(=O)Nc2ccc(Oc3ccnc(Nc4ccn(C)n4)c3)c3ccccc23)cc(C(C)(C)C)cc1P(C)(C)=O [Example 36, 1-(5-(tert-Butyl)-3-(dimethylphosphoryl)-2-methoxyphenyl)-3-(4-((2-((1-methyl-1H-pyrazol-3-yl)amino)pyridin-4-yl)oxy)naphthalen-1-yl)urea] |  | 17.5% | 84.5% | 27.5% | 1.1 nM | 27 nM | 31 nM | 54 nM | 1070 nM |  | 86.6%
8 | COc1cc(Nc2cc(Oc3ccc(NC(=O)Nc4cc(C(C)(C)C)cc(S(C)(=O)=O)c4OC)c4ccccc34)ccn2)ccc1C(=O)O [Example 80, 4-((4-((4-(3-(5-(tert-Butyl)-2-methoxy-3-(methylsulfonyl)phenyl)ureido)naphthalen-1-yl)oxy)pyridin-2-yl)amino)-2-methoxybenzoic acid] | 415 nM |  |  |  | 4.5 nM |  |  |  |  | 6.6 nM | 
